Measurements taken from US20230242616A1, “CHEMOKINE-SELECTIVE CXCR4 ECTODOMAIN-DERIVED (POLY)PEPTIDE” (Ludwig-Maximilians-Universität München, priority 2020, published 2023).
Values belong to the compound of their own block, whether it stands above or below them.

What was measured:
[1] = system: human monocyte-derived macrophages; settings: from titration of the CXCR4 inhibitor
[2] = system: primary human monocyte-derived macrophages; experiment: Dil-LDL uptake / foam cell formation, MIF-mediated; format: cell-based; settings: 80 nM MIF
Description: Dil-LDL uptake/foam cell formation. […] After washing with imaging solution (MEM without phenol red containing 30 mM HEPES, 0.5 g/L NaHCO3, pH 7.4, and 0.2% BSA), cells were exposed to 50 μg/mL 1,1′-dioctadecyl-3,3,3′3′-tetra-methylindocarbocyanine-labeled LDL (Dil-LDL) for 30 min at 4° C. followed by incubation at 37° C. for 20 min. Cells were washed with ice-cold imaging solution (pH 3.5), fixed, and counter-stained with Hoechst 33258.

[3] = system: human monocyte-derived macrophages; experiment: cells; settings: Macrophage, read-out: IC50 of MIF-triggered Dil-oxLDL uptake
plaque-associated MIF = target: T1, plaque-associated MIF (Mus musculus, UniProt P34884); experiment: Staining of mouse atherosclerotic plaque sections with Fluos-msR4M-L1; settings: Ldlr−/− aortic root, Apoe−/− brachiocephalic artery
T1 construct: from tissue; host or cells: aortic root (Ldlr-/-) and brachiocephalic artery (Apoe-/-) sections of atherogenic mice
Description: Staining of atherosclerotic plaque tissue with Fluos-msR4M-L1. Immunofluorescent staining of atherosclerotic tissue with Fluos-msR4M-L1 was performed with specimens from atherogenic Ldlr^−/− and Apoe^−/− mice. Ldlr^−/− mice were on chow diet for 30 weeks and developed native atherosclerotic lesions as reported previously^14. Mif-deficient mice (Ldlr^−/− Mif^−/−) were used for comparison. Aortic root sections were deparaffinized and rehydrated. For antigen retrieval, slides were boiled in sodium citrate buffer, pH 6.0, 0.05% Tween-20, and blocked with PBS, containing 5% donkey serum and 1% BSA. For staining, slides were incubated at 4° C. with Fluos-msR4M-L1 (5 μM) in blocking buffer. DAPI was used for nuclear counterstain and sections were imaged using a Leica DMI8 fluorescent microscope. The mean fluorescence intensity localized to the aortic vessel wall was quantified via Image J.
Sides were fixed in ice-cold acetone, rehydrated in PBS, and blocked in PBS/1% BSA, incubated with 500 nM Fluos-msR4M-L1, and analyzed as above.

atherogenic Apoe−/− mice = experiment: Localization of in-vivo-administered Fluos-msR4M-L1 (multiphoton microscopy); design: species or system mouse; settings: three days before vessel preparation
[4] = system: human carotid atherosclerotic plaque sections; experiment: Staining of human carotid endarterectomy plaque sections with Fluos-msR4M-L1
From the text: Patient population, study groups and tissue samples. Carotid artery tissue samples (n=28) came from the Munich Vascular Biobank (MVB) and were from patients who underwent carotid endarterectomy (CEA) in the Department of Vascular and Endovascular Surgery at University Hospital of Technische Universität München. Preparation of samples for histological and IHC analysis has been reported^40. […] Healthy FFPE carotid vessels were obtained from the Forensic Medicine Department (n=6). The type of atherosclerotic lesions in the CEA samples was determined according to the American Heart Association (AHA) guidelines using HE and Elastica-van-Gieson (EVG) staining procedures as described^40. […] The study was approved by the local ethical committee of the University Hospital and followed the Guidelines of the World Medical Association Declaration of Helsinki. All patients provided informed consent. Immunohistochemistry/immunofluorescence staining. Immunofluorescence staining of human CEA tissues with Fluos-msR4M-L1 was performed using the same protocol as for paraffin-embedded specimens from Ldlr^−/− mice (see above). […] HRP-conjugated polyclonal rabbit anti-goat immunoglobulin (DAKO, P0160, 1:1000) was used as secondary antibody. Slides were counterstained with Mayer hematoxylin and stainings analyzed with a Leica DMi8.

CXCL12 = target: T2, CXCL12 (Homo sapiens, UniProt P48061); experiment: Dot blot titration with TAMRA-msR4M-L1, immobilized CXCL12; format: binding
T2 construct: purchased Peprotech (or a gift of Dr. von Hundelshausen, LMU Munich)
T2 sequence (P48061 22-93): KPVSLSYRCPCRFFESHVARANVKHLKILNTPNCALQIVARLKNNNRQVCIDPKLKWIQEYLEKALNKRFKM
Description: Dot blot. […] Non-specific binding was blocked with Tris-buffered saline (TBS), pH 7.4, containing 0.1% Tween-20 (TBS-T) and 1% BSA. […] Fluorescence intensities were measured at 600 nm using an Odyssey® Fc imager (LICOR Biosciences, Bad Homburg, Germany). The total intensity of each spot was automatically corrected by the individual background signal.

IC50 [3]: 48.9 nM
Compound: c1cc(CN2CCCNCCNCCCNCC2)ccc1CN1CCCNCCNCCCNCC1 [AMD3100, reference compound]
CXCR4-dependent part of MIF-triggered oxLDL uptake [1]: approximately 50%
effect on MIF-mediated Dil-LDL uptake [2]: blocked

Compound: Fluos-ECL1-6-Ahx-12-Ado-ECL2 (DAVANWYFGNFLCKDRYICDRFYPNDLWV; non-natural residues) [Fluos-msR4M-L1]
staining of plaque sections, Mif-proficient versus Mif-deficient mice (plaque-associated MIF): significantly more pronounced in plaque tissue from Mif-proficient atherogenic
tissue localization after intraperitoneal injection (atherogenic Apoe−/− mice): strongly localized to intimal plaque areas, while staining in spleen, liver, and brain was marginal
staining of stable versus unstable human carotid plaques and healthy vessels [4]: pronounced staining of stable carotid plaque tissue that was higher than Fluos-msR4M-L1 positivity detected in unstable plaques and healthy vessels

binding to immobilized CXCL12 on dot blot (CXCL12): no binding to CXCL12
Compound: CC[C@H](C)[C@H](NC(=O)[C@H](Cc1ccc(O)cc1)NC(=O)[C@H](CCCNC(=N)N)NC(=O)[C@H](CC(=O)O)NC(=O)CCCCCCCCCCCNC(=O)CCCCCNC(=O)[C@H](CCCCN)NC(=O)[C@H](CS)NC(=O)[C@H](CC(C)C)NC(=O)[C@H](Cc1ccccc1)NC(=O)[C@H](CC(N)=O)NC(=O)CNC(=O)[C@H](Cc1ccccc1)NC(=O)[C@H](Cc1ccc(O)cc1)NC(=O)[C@H](Cc1c[nH]c2ccccc12)NC(=O)[C@H](CC(N)=O)NC(=O)[C@H](C)NC(=O)[C@@H](NC(=O)[C@H](C)NC(=O)[C@H](CC(=O)O)NC(=O)c1ccc2c(c1)C(=O)OC21c2ccc(N(C)C)cc2Oc2cc(N(C)C)ccc21)C(C)C)C(=O)N[C@@H](CS)C(=O)N[C@@H](CC(=O)O)C(=O)N[C@@H](CCCNC(=N)N)C(=O)N[C@@H](Cc1ccccc1)C(=O)N[C@@H](Cc1ccc(O)cc1)C(=O)N1CCC[C@H]1C(=O)N[C@@H](CC(N)=O)C(=O)N[C@@H](CC(=O)O)C(=O)N[C@@H](CC(C)C)C(=O)N[C@@H](Cc1c[nH]c2ccccc12)C(=O)N[C@H](C(N)=O)C(C)C [TAMRA-msR4M-L1, TAMRA-ECL1-6-Ahx-12-Ado-ECL2]
